Assay results published in paper PMC7316778 (Nature Communications, 2020).
pIC50: −log10 of the molar value. Where “and” joins values, the source holds several entries; their conditions need not be identical. Equal values may be shown once. Read-outs that look alike come from different tables or passages of the source.

What was measured:
AURKB (Aurora B) = AURKB (Aurora B) (Homo sapiens, UniProt Q96GD4); assay: SelectScreen kinase assay
Protocol: (§1) Selectivity profiling assays were performed by the Invitrogen SelectScreen™ Services. […] The concentration of ATP was selected to be equal to the KM, unless indicated otherwise.

[1] = tested on: panel of 380 wild-type, mammalian kinases; assay: SelectScreen selectivity profiling, whole panel; format: biochemical
Protocol: Supplementary Figure 4. Single-point selectivity screen of WEL028 on a panel of 380 kinases. All data were obtained from SelectScreen™ selectivity profiling service. Assays were performed at 1 μM WEL028 with 1 h preincubation. The ATP concentration was equal to the kinase K M, except for those indicated († = LanthaScreen technology, no ATP; * = 100 µM ATP; ** = 10 µM ATP). Values represent mean percentage inhibition compared to vehicle -treated control (n = 2). […]
inhibition from minimum (0%, white) to maximum (100%, red). Source data are provided as a Source

PRKCH (PKC eta) = PRKCH (PKC eta) (Homo sapiens, UniProt P24723); assay: SelectScreen kinase assay; details: 1 h, 1 μM WEL028, 1 h preincubation
Protocol: as §1

PRKD1 (PKC mu) = target: T1, PRKD1 (PKC mu) (Homo sapiens, UniProt Q15139); assay: SelectScreen kinase assay
T1 sequence (Q15139 1-912): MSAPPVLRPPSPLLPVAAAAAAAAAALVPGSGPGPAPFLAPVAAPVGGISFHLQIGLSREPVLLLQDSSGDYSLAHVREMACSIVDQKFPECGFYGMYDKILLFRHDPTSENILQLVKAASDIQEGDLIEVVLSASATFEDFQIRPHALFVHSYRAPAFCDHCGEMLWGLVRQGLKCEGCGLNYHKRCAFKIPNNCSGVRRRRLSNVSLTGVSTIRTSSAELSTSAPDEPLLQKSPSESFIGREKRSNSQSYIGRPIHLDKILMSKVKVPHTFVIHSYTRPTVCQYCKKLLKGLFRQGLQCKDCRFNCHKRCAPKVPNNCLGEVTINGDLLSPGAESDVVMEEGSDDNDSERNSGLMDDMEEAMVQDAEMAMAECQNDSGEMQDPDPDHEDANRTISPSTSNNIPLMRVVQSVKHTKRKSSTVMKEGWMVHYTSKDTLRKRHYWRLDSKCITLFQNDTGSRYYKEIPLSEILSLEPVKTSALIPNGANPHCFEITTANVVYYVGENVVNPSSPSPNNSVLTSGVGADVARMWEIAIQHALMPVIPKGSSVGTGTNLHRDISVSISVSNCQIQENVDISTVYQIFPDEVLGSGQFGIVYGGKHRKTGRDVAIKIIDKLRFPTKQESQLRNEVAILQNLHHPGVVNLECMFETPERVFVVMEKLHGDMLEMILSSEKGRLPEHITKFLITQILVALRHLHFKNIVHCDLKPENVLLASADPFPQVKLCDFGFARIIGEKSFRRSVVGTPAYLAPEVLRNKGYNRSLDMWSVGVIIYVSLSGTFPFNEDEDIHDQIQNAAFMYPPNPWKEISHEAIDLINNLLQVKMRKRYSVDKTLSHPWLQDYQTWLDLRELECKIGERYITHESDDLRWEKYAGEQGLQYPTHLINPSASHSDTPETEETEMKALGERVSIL
Protocol: as §1

TNK1 = target: T2, TNK1 (Homo sapiens, UniProt Q13470); assay: SelectScreen kinase assay
T2 sequence (Q13470 1-666): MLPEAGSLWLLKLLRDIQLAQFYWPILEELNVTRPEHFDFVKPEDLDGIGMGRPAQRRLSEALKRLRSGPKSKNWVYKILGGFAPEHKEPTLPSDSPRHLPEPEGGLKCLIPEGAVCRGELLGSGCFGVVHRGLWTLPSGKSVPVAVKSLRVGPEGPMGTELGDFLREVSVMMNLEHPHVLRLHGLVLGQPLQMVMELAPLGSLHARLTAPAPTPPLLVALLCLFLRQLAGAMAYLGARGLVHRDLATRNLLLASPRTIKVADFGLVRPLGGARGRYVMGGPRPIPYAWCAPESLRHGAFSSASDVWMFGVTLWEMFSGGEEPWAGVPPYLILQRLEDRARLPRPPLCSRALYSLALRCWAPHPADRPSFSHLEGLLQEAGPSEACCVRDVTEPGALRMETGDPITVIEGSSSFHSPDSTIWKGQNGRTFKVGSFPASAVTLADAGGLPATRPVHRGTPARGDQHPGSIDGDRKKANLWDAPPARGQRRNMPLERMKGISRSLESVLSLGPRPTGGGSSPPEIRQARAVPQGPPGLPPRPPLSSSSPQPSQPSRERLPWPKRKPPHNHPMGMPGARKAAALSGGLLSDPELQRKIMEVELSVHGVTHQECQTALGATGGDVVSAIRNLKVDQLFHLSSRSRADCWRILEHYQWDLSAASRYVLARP
Protocol: as §1

BRAF [2] = assay: SelectScreen kinase assay; details: IC50 on that kinase divided by IC50 on FES^S700C
Protocol: as §1

BRAF [3] = target: BRAF (Homo sapiens, UniProt P15056); assay: SelectScreen kinase assay
Protocol: as §1

MERTK (cMER) = MERTK (cMER) (Homo sapiens, UniProt Q12866); assay: SelectScreen kinase assay
Protocol: as §1

[4] = 1 h, 1 μM WEL028, 1 h preincubation

Sequence of AURKB (Aurora B) (Q96GD4 whole entry): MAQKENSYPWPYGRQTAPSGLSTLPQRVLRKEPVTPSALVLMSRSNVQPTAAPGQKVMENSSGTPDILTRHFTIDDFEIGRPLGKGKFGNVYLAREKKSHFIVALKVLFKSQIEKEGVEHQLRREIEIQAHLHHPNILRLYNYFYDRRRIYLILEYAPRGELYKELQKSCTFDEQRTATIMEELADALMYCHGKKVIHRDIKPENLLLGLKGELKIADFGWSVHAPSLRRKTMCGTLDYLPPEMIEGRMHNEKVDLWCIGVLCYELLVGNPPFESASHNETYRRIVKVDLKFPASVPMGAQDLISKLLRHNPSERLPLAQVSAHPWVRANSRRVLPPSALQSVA
Sequence of MERTK (cMER) (Q12866 21-999): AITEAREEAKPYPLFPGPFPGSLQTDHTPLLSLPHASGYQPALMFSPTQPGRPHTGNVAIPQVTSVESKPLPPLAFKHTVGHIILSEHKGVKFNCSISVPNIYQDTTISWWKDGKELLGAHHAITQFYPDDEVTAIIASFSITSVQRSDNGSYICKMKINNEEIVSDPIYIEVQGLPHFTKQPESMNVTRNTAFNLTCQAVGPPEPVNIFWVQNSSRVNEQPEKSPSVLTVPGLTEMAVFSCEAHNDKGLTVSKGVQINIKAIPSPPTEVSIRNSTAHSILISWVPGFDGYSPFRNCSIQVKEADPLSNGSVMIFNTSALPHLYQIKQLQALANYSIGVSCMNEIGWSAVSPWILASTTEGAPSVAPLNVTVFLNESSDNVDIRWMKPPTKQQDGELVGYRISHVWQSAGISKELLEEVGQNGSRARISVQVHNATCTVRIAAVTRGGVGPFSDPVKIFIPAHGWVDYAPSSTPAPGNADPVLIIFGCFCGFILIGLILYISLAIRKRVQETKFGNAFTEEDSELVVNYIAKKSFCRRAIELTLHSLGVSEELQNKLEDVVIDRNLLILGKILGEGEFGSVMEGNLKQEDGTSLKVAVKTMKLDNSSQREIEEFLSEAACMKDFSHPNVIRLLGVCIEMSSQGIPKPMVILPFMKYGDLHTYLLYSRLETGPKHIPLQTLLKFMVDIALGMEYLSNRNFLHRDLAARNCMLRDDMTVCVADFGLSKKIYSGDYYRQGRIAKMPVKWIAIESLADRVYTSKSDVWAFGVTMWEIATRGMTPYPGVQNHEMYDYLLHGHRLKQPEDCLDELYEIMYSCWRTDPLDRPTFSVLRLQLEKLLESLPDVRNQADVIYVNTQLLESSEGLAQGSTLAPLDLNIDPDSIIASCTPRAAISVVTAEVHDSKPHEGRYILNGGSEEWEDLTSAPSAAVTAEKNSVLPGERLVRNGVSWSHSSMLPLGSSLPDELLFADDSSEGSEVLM
Sequence of BRAF (Homo sapiens, UniProt P15056) (P15056 whole entry, species assumed): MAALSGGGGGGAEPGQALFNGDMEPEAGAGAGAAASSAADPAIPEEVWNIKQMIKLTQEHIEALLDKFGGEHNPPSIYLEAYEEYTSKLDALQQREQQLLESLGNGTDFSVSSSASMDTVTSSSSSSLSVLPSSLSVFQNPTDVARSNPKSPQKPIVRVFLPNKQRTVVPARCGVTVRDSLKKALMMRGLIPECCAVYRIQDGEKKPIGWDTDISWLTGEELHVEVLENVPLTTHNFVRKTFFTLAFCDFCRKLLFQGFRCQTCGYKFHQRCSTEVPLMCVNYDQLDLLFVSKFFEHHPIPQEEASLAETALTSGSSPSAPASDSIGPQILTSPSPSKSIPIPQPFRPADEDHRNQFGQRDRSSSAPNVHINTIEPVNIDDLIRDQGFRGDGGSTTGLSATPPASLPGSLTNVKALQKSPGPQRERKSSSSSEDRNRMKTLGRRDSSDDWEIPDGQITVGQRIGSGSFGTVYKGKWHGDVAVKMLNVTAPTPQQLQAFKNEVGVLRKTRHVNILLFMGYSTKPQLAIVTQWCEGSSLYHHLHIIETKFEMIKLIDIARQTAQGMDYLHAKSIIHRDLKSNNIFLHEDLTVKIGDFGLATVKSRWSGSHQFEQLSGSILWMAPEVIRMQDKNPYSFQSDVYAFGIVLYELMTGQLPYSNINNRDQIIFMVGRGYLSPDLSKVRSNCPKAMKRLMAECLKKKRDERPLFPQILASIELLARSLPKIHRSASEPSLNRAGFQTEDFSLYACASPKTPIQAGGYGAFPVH
Sequence of PRKCH (PKC eta) (P24723 whole entry): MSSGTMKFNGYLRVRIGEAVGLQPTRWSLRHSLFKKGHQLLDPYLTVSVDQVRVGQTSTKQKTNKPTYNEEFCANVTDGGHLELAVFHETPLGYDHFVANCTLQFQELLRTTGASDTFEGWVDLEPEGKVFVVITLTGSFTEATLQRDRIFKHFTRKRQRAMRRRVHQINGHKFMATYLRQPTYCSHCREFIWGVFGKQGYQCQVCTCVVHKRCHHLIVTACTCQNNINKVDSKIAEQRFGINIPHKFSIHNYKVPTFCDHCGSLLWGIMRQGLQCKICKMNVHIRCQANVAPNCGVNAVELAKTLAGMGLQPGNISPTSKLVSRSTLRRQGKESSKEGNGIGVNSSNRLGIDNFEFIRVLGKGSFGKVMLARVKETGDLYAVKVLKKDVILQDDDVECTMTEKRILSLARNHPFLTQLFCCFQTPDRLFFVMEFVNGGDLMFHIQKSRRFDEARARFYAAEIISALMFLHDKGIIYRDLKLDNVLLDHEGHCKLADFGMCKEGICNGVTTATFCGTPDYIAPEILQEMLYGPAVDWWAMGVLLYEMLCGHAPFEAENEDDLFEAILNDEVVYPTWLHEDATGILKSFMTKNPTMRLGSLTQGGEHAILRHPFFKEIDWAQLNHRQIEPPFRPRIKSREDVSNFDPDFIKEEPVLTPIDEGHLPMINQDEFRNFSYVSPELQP

With `C#CCOc1ccc(Nc2ncc(Cl)c(Nc3ccccc3NC(=O)C=C)n2)c(OC)c1` [Compound 6] the inhibition at 1 µM (AURKB (Aurora B); [4]) was 37%, the “Inhibition at 1 µM (%)” value (AURKB (Aurora B); AURKB (Aurora B), 1 µM, ZLYTE, ATP Km app, listed as WEL028, 1 µM) was 32% and the inhibition at 1 µM (AURKB (Aurora B); read-out: Inhibition at 1 µM (%), AURKB (Aurora B), 1 µM, ZLYTE, ATP Km app) was 41%. For the same molecule, the “Selectivity window against the residual 354 kinases” value ([1]; 1 μM screen vs FES^S700C) was greater than 100 fold, the “Number of kinases with >50% inhibition” value ([1]; out of 380 tested kinases, 1 μM, 1 h preincubation) was 26 and the inhibition at 1 µM (PRKCH (PKC eta)) was -4%. For the same molecule, the “Inhibition at 1 µM (%)” value (PRKD1 (PKC mu); 1 µM, ZLYTE, ATP Km app, listed as WEL028, 1 µM) was 9%, the inhibition at 1 µM (PRKD1 (PKC mu); [4]) was 11% and the inhibition at 1 µM (PRKD1 (PKC mu); read-out: Inhibition at 1 µM (%), 1 µM, ZLYTE, ATP Km app) was 12%. For the same molecule, the “Inhibition at 1 µM (%)” value (TNK1; 1 µM, ZLYTE, ATP Km app) was 41%, the inhibition at 1 µM (TNK1; 1 h) was 41% and the inhibition at 1 µM (TNK1; read-out: Inhibition at 1 µM (%)) was 41%. It also gave an Apparent fold selectivity (BRAF [2]) of 25 fold, a pIC50 (BRAF [3]) of 7.00 and an inhibition at 1 µM (BRAF [3]; [4]) of 94%. For the same molecule, the inhibition at 10 µM (BRAF [3]; 1 h, log[inhibitor] (M) -5.00, ZLYTE, ATP 100) was 98%, the inhibition at 3.311 µM (BRAF [3]; 1 h, log[inhibitor] (M) -5.48, ZLYTE, ATP 100) was 100% and the inhibition at 1.122 µM (BRAF [3]; 1 h, log[inhibitor] (M) -5.95, ZLYTE, ATP 100) was 96%. The inhibition at 0.3715 µM (BRAF [3]; 1 h, log[inhibitor] (M) -6.43, ZLYTE, ATP 100) was 65%, the inhibition at 0.123 µM (BRAF [3]; 1 h, log[inhibitor] (M) -6.91, ZLYTE, ATP 100) was 53% and the inhibition at 0.04074 µM (BRAF [3]; 1 h, log[inhibitor] (M) -7.39, ZLYTE, ATP 100) was 28%. The inhibition at 0.0138 µM (BRAF [3]; 1 h, log[inhibitor] (M) -7.86, ZLYTE, ATP 100) was 15%, the inhibition at 0.001514 µM (BRAF [3]; 1 h, log[inhibitor] (M) -8.82, ZLYTE, ATP 100) was 3% and the “Inhibition at 1 µM (%)” value (BRAF [3]; BRAF, 1 µM, ZLYTE, ATP 100, listed as WEL028, 1 µM) was 97%. For the same molecule, the inhibition at 1 µM (BRAF [3]; read-out: Inhibition at 1 µM (%), BRAF, 1 µM, ZLYTE, ATP 100) was 90%, the inhibition at 1 µM (MERTK (cMER); [4]) was 4% and the “Inhibition at 1 µM (%)” value (MERTK (cMER); MERTK (cMER), 1 µM, ZLYTE, ATP Km app, listed as WEL028, 1 µM) was 0% and 9%.
